Reference: article PMC6001375, “CLERK is a novel receptor kinase required for sensing of root-active CLE peptides in Arabidopsis” (Development (Cambridge, England), 2018)
Entries after “also recorded” stand apart in the source; their conditions may differ.

How the values were obtained:
[1] = system: VISUAL-cultured wild-type cotyledons (sieve element-specific genes); experiment: RNAseq transcriptomic response in the VISUAL trans-differentiation assay; assay type: cell-based, Arabidopsis thaliana; conditions: for Number of responsive genes / Overlap of CLE26- and CLE45-responsive genes: 100 nM peptide, 2 h, q value<0.01
Description: In an attempt to isolate novel components of CLE peptide signaling in A. thaliana root protophloem development, we embarked on a combinatorial approach of transcriptomic analysis and forward genetics. Experimental investigation of developing protophloem sieve elements is inherently difficult, because they represent only 40-50 cells inside the vascular cylinder of the root meristem, and some of our genes of interest are expressed only in a subset of these. Protophloem-specific transcriptomic responses are thus strongly diluted when root tips are assayed, and attempts to identify, e.g. protophloem-specific CLE45-responsive genes have so far been unsuccessful ([Depuydt et al., 2013]). However, in a novel trans-differentiation assay [vascular cell induction culture system using Arabidopsis leaves (VISUAL)] ([Kondo et al., 2016]), in which cotyledon or leaf mesophyll cells are re-programmed to differentiate into a ∼50:50 mix of xylem vessels and sieve elements, sieve element-specific genes can be monitored in unprecedented abundance. Although these trans-differentiated sieve elements are not root protophloem, they do represent a native cell type in which sieve element regulators can be investigated successfully ([Breda et al., 2017]; [Kondo et al., 2016]). Moreover, a transcriptomic time series identified BAM3 as a central node in the early module of the trans-differentiation process ([Kondo et al., 2016]). Thus, we concluded that VISUAL could be employed to identify CLE26- and CLE45-responsive sieve element-specific genes. To achieve this, we VISUAL-cultured wild-type cotyledons and monitored BAM3 expression in a parallel cultured transgenic line that carried a BAM3::GUS reporter gene. Strong comprehensive BAM3 expression was observed after 48 h. At this time point, the wild-type sample was split in replicates and treated with control, 100 nM CLE26 or 100 nM CLE45 for 2 h. Total RNA was isolated immediately after from these samples, and cDNA was prepared for high-throughput sequencing.
Vascular tissue trans-differentiation was induced in cotyledons over 2 days as described previously ([Kondo et al., 2016]). Samples were then treated with 100 nM of CLE26 or CLE45 peptide for 2 h. Total RNA of two biological replicates was then extracted from 100 mg of fresh material, using RNeasy Plant mini kits (Qiagen). Truseq Stranded mRNA kits (Illumina) were used to prepare cDNA libraries, which were sequenced on an Illumina Hiseq 2500 instrument. Read counts and differential expression were determined with Kallisto ([Bray et al., 2016]) and Sleuth ([Pimentel et al., 2017]) software, using the TAIR10 reference transcriptome. The raw data have been deposited in the NCBI Sequence Read Archive (www.ncbi.nlm.nih.gov/sra/) under accession SRP126390.

Arabidopsis root growth = experiment: Root growth response (CLE resistance/sensitivity) of wild type and mutant seedlings; assay type: in vivo, Arabidopsis thaliana; conditions: for Root growth response of clerk mutants: clerk mutants vs Col-0 (and bam3 for CLE45), n=13-25 (Fig. 2B), n=16-19 (Fig. 2A)
Description: Arabidopsis thaliana Columbia-0 (Col-0) was used as the wild type for phenotypic analyses and is the background of all mutants investigated: ops-2 (SALK_139316); brx-2 ([Rodrigues et al., 2009]); bam3-2 (SALK_044433) ([DeYoung et al., 2006]); clerk-3 (SALK_066568); ops^E319K ([Rodriguez-Villalon et al., 2014]); makr5 ([Kang and Hardtke, 2016]); nik1 (SALK_017538C); nik2 (SALK_044363C); and sark (SALK_111290), clv2/rlp10-1 (GK-686A09) and crn-10 ([Hazak et al., 2017]). Seeds were surface sterilized, germinated and grown vertically under continuous light at 22°C on 0.5× Murashige and Skoog media supplemented with 1% agar and with or without 0.3% sucrose.
CLE peptides were obtained from a commercial supplier (Genscript), synthesized at >80% purity, diluted in water and used at final concentration as indicated. For root length measurements, plates were scanned at 600 dpi resolution and seedling root length was determined using the Simple Neurite Tracer plug-in ([Longair et al., 2011]) for Fiji software ([Schindelin et al., 2012]).
M2 mutagenized seeds ([Kalmbach et al., 2017]) were screened in tissue culture on media complemented with 10 nM CLE26 peptide. Seedlings with CLE26-resistant root growth were transferred to soil and the phenotype was confirmed in the M3 generation before backcrossing to Col-0 wild type. The causative mutation for CLE26 resistance was then determined by whole-genome sequencing of bulked segregants as described previously ([Kang and Hardtke, 2016]).

Sequence	Regulation of SARK and NIK2 ([1]; 100 nM CLE26, 2 h)	Regulation of CLERK (At2g23950) ([1]; 100 nM CLE26, 2 h, top CLE26-responsive gene)	Number of responsive genes [1]	Overlap of CLE26- and CLE45-responsive genes [1]	Root growth, 10 confirmed CLE26-resistant mutants (Arabidopsis root growth; 100 nM CLE26, vs Col-0 wild type, ANOVA, P<0.001, n=8-21)	Sensitivity of clerk plants carrying CLERK::CLERK-GFP (Arabidopsis root growth; Fig. 1E)	Root growth response, clerk T-DNA insertion mutant (SALK_066568) (Arabidopsis root growth; Fig. 1E, n=28-47)	Response of brx crn double mutants (Arabidopsis root growth; Fig. S4)	Requirement of CLERK for sensing in the root (Arabidopsis root growth; clerk mutants)	Root growth response of clerk mutants (Arabidopsis root growth)	Response of clerk brx and clerk ops double mutants (Arabidopsis root growth; n=2-25)	Response of combinations of clerk with bam3, makr5 or ops^E319K (Arabidopsis root growth; n=2-25)	CLE sensitivity of clerk mutants with transgenic CLERK wild-type copy (Arabidopsis root growth; original and T-DNA clerk mutants, Fig. 1E, n=28-47)	Sensing with SARK or NIK1 expressed under the CLERK promoter (Arabidopsis root growth; several independent transgenic lines, n=21-43)
RKVPRGPDPIHN [CLE26]	downregulated	downregulated	167 genes	36 genes	substantially resistant; also recorded: statistically significantly different when compared with Col-0 wild type	full sensitivity	strong CLE26 resistance	still CLE26 sensitive	CLERK is required for CLE26 sensing in the root	resistant	both clerk brx and clerk ops were CLE26 sensitive	additive CLE26 resistance	could be recovered	both SARK and NIK1 could replace the CLERK protein to sense CLE26
RRVRRGSDPIHN [CLE45]	–	–	97 genes	36 genes	–	–	–	–	–	resistant	–	–	–	–
